Results reported in ChEMBL document CHEMBL5303573, “Mapping human microbiome drug metabolism by gut bacteria and their genes” (Nature, 2019).

Legend:
[1] = The drug is tested on Bifidobacterium ruminantium strain: fecal isolate for biotransformation. The drug concentrations were measured before and after a 12-h incubation by liquid-chromatography-coupled mass spectrometry (LC–MS); conditions: 2 µM
[2] = The drug is tested on Bacteroides dorei strain: DSM17855 for biotransformation. The drug concentrations were measured before and after a 12-h incubation by liquid-chromatography-coupled mass spectrometry (LC–MS); conditions: phocaeicola dorei, 2 µM
[3] = The drug is tested on Bacteroides finegoldii strain: DSM17565 for biotransformation. The drug concentrations were measured before and after a 12-h incubation by liquid-chromatography-coupled mass spectrometry (LC–MS); conditions: 2 µM
[4] = The drug is tested on Bacteroides ovatus strain: ATCC8483 for biotransformation. The drug concentrations were measured before and after a 12-h incubation by liquid-chromatography-coupled mass spectrometry (LC–MS); conditions: 2 µM
[5] = The drug is tested on Bacteroides pectinophilus strain: ATCC43243 for biotransformation. The drug concentrations were measured before and after a 12-h incubation by liquid-chromatography-coupled mass spectrometry (LC–MS); conditions: 2 µM
[6] = The drug is tested on Bacteroides vulgatus strain: ATCC8482 for biotransformation. The drug concentrations were measured before and after a 12-h incubation by liquid-chromatography-coupled mass spectrometry (LC–MS); conditions: phocaeicola vulgatus, 2 µM
[7] = The drug is tested on Bacteroides sp. WH2 strain: WH2 for biotransformation. The drug concentrations were measured before and after a 12-h incubation by liquid-chromatography-coupled mass spectrometry (LC–MS); conditions: bacteroides sp. wh2, 12 h, 2 µM
[8] = The drug is tested on Odoribacter splanchnicus strain: fecal isolate for biotransformation. The drug concentrations were measured before and after a 12-h incubation by liquid-chromatography-coupled mass spectrometry (LC–MS); conditions: 2 µM
[9] = The drug is tested on Blautia luti strain: DSM14534 for biotransformation. The drug concentrations were measured before and after a 12-h incubation by liquid-chromatography-coupled mass spectrometry (LC–MS); assay type: ADME; set-up: dose 2 uM, timepoint 0 vs 12 hours; conditions: 2 µM
[10] = The drug is tested on Clostridium asparagiforme strain: DSM15981 for biotransformation. The drug concentrations were measured before and after a 12-h incubation by liquid-chromatography-coupled mass spectrometry (LC–MS); assay type: ADME; set-up: dose 2 uM, timepoint 0 vs 12 hours; conditions: enterocloster asparagiformis, 2 µM
[11] = The drug is tested on Eubacterium hallii strain: DSM3353 for biotransformation. The drug concentrations were measured before and after a 12-h incubation by liquid-chromatography-coupled mass spectrometry (LC–MS); conditions: anaerobutyricum hallii, 2 µM
[12] = The drug is tested on Eubacterium rectale strain: ATCC33656 for biotransformation. The drug concentrations were measured before and after a 12-h incubation by liquid-chromatography-coupled mass spectrometry (LC–MS); conditions: agathobacter rectalis, 2 µM
[13] = The drug is tested on Ruminococcus torques strain: ATCC27756 for biotransformation. The drug concentrations were measured before and after a 12-h incubation by liquid-chromatography-coupled mass spectrometry (LC–MS); assay type: ADME; set-up: dose 2 uM, timepoint 0 vs 12 hours; conditions: 2 µM
[14] = The drug is tested on Enterobacter cancerogenus strain: ATCC35316 for biotransformation. The drug concentrations were measured before and after a 12-h incubation by liquid-chromatography-coupled mass spectrometry (LC–MS); conditions: 2 µM
[15] = The drug is tested on Providencia stuartii strain: ATCC25827 for biotransformation. The drug concentrations were measured before and after a 12-h incubation by liquid-chromatography-coupled mass spectrometry (LC–MS); conditions: 2 µM
[16] = bacteroides eggerthii, 12 h, 2 µM
Description: The drug is tested on Bacteroides eggerthii strain: DSM20697 for biotransformation. The drug concentrations were measured before and after a 12-h incubation by liquid-chromatography-coupled mass spectrometry (LC–MS)

[17] = bacteroides stercoris, 12 h, 2 µM
Description: The drug is tested on Bacteroides stercoris strain: ATCC43183 for biotransformation. The drug concentrations were measured before and after a 12-h incubation by liquid-chromatography-coupled mass spectrometry (LC–MS)

[18] = bacteroides thetaiotaomicron, 12 h, 2 µM
Description: The drug is tested on Bacteroides thetaiotaomicron strain: VPI-5482 for biotransformation. The drug concentrations were measured before and after a 12-h incubation by liquid-chromatography-coupled mass spectrometry (LC–MS)

[19] = segatella copri, 12 h, 2 µM
Description: The drug is tested on Prevotella copri strain: DSM18205 for biotransformation. The drug concentrations were measured before and after a 12-h incubation by liquid-chromatography-coupled mass spectrometry (LC–MS)

[20] = enterocloster bolteae, 12 h, 2 µM
Description: The drug is tested on Clostridium bolteae strain: ATCCBAA-613 for biotransformation. The drug concentrations were measured before and after a 12-h incubation by liquid-chromatography-coupled mass spectrometry (LC–MS)

Structure (SMILES)	Bacterial Biotransformation [1]	Bacterial Biotransformation [2]	Bacterial Biotransformation [3]	Bacterial Biotransformation [4]	Bacterial Biotransformation [5]	Bacterial Biotransformation [6]	Bacterial Biotransformation [7]	Bacterial Biotransformation [8]	Bacterial Biotransformation [9]	Bacterial Biotransformation [10]	Bacterial Biotransformation [11]	Bacterial Biotransformation [12]	Bacterial Biotransformation [13]	Bacterial Biotransformation [14]	Bacterial Biotransformation [15]	Bacterial Biotransformation [16]	Bacterial Biotransformation [17]	Bacterial Biotransformation [18]	Bacterial Biotransformation [19]	Bacterial Biotransformation [20]
CN(C/C=C/C#CC(C)(C)C)Cc1cccc2ccccc12 [TERBINAFINE]	Compound NOT metabolized	Compound NOT metabolized	Compound NOT metabolized	Compound NOT metabolized	Compound NOT metabolized	Compound NOT metabolized	Compound NOT metabolized	Compound NOT metabolized	Compound NOT metabolized	Compound NOT metabolized	Compound NOT metabolized	Compound NOT metabolized	Compound NOT metabolized	Compound NOT metabolized	Compound NOT metabolized	Compound NOT metabolized	Compound NOT metabolized	Compound NOT metabolized	Compound NOT metabolized	Compound NOT metabolized
C=CC[C@@H]1/C=C(\C)C[C@H](C)C[C@H](OC)[C@H]2O[C@@](O)(C(=O)C(=O)N3CCCC[C@H]3C(=O)O[C@H](/C(C)=C/[C@@H]3CC[C@@H](O)[C@H](OC)C3)[C@H](C)[C@@H](O)CC1=O)[C@H](C)C[C@@H]2OC.O [TACROLIMUS]	Compound NOT metabolized	Compound metabolized	Compound metabolized	Compound NOT metabolized	Compound NOT metabolized	Compound NOT metabolized	Compound NOT metabolized	Compound metabolized	Compound metabolized	Compound metabolized	Compound metabolized	Compound metabolized	Compound NOT metabolized	Compound metabolized	Compound NOT metabolized	Compound metabolized	Compound metabolized	Compound NOT metabolized	Compound NOT metabolized	Compound metabolized
